Data reported in US6569850B1, “Treatment of multiple sclerosis (MS) and other demyelinating conditions using lofepramine in combination with L-phenylalanine, tyrosine or tyrptophan and possibly a vitamin B12 compound” (priority 1994, dated 2003).
Entries after “also recorded” stand apart in the source; their conditions may differ.

Experiment: Treatment of patients with Multiple Sclerosis (case histories and patient series)
Assay type: in vivo, human
Conditions: for Contribution of the component to the therapeutic effect in MS: added to the antidepressant regime
Description: Over 100 other patients have done well on a similar regime, although some have been given other antidepressants either of the traditional tricyclic class, such as amitriptyline or imipramine, or the newer specialist serotonin uptake inhibitors or monoamine oxidase inhibitors. Four particular instances are given in the appendix. […] The doses of LPA have also varied from about 100 mg to up to 5 g per day, but best results are obtained with doses in the region of 500-2000 mg/day. The doses of antidepressants (with the proviso that minimum effective and maximum safe levels are determined according to the drug), lie broadly in the range 10 mg to 200 mg per day.
A specific example of the use of the treatment is 70 mgs (half the therapeutic starting dose for depression) of lofepramine taken each morning with 500 mgs of L-phenylalanine, and 500 mgs of L-phenylalanine taken mid afternoon. For patients with the regular MS attacks of chronic progressive MS it is desirable to include an 8-10 week course of 1000 micrograms of hydroxocobalamin (intra muscular) per week at the start of treatment and then 1000 micrograms every ten days thereafter.

Compound | Contribution of the component to the therapeutic effect in MS | Comparative therapeutic result among antidepressants in MS treatment (antidepressant combined with neurotransmitter precursor)
N[C@@H](Cc1ccccc1)C(=O)O [L-phenylalanine (LPA), L-phenylalanine] | contributes to the therapeutic effect | 
CN(CCCN1c2ccccc2CCc2ccccc21)CC(=O)c1ccc(Cl)cc1 [lofepramine] |  | best results; also recorded: Most have done best
vitamin B12 | does have a beneficial effect; also recorded: the treatment works best | 
